Results: patent US8778927B2, “Smoothened antagonism for the treatment of hedgehog pathway-related disorders” (Novartis AG, priority 2008, dated 2014)
“And” between values parts separate entries of the source, which are not always exact repeats. Equal entries are not always repeated. “Also recorded” adds a separate entry of the source. Each block holds one molecule with its values, some of them ahead of it.

Key:
[1] = tested on: Ptch+/−Hic+/− medulloblastoma allograft; experiment: Ptch+/−Hic+/− medulloblastoma allograft model, continuous dosing; type: in vivo, mouse; conditions: for number of sustained complete regressions: dosed day 10 to day 56, day 56
From the text: (§1) Mouse medulloblastoma cells (1.0−5.0×10^6), dissociated directly from tumor fragments originally derived from spontaneously arising medulloblastomas in Ptch+/−p53−/−, Ptch+/−Hic+/− or Ptch+/− mice, were inoculated subcutaneously into the right flank of Harlan nu/nu mice. Treatment was initiated approximately 7-10 days post implantation. Animals were randomized into treatment groups with similar mean tumor volumes that ranged from approximately 250-300 mm3. Tumor volumes (mm3) and body weights (g) were recorded two or three times per week from all groups for analysis. Dose was body weight adjusted at time of dosing. Comparisons between treatment groups was performed using a non-parametric Kruskal-Wallis/Wilcoxon Rank Sum Test.
(§2) Tumors were calipered in two dimensions, and the volumes were calculated using the formula: (length×width2)/2, where length is the longer of the two measurements and width is the shorter one. Percent treatment/control (% T/C) values were calculated using the following formula: % T/C=100×ΔTf−i/ΔCf−i if ΔTf−i>0, % T/T0=100×ΔTf−i/T0 if ΔTf−i<0 (regression). A partial responder (PR) was defined as an animal whose tumor was less than 50% of the initial tumor volume by the end of the study. An animal with no palpable tumor by the end of study is defined as a complete responder (CR).
Treatments started on day 7 post implantation (5 million cells/animal). Compound 1 was administered po at 5 mg/kg bid, 10 mg/kg bid, 20 mg/kg qd, 20 mg/kg bid, 40 mg/kg bid and 80 mg/kg bid for the length of study. Compound 2 was administered at 100 mg/kg bid for the length of study. Vehicle control of Compound 1 was 0.5% methylcellulose 0.5% Tween 80 in water. The initial group size consisted of 8 animals. The vehicle group was taken down 10 days after treatment (tumors greater than 10% of mouse body weight).
Sustained regressions listed in the Table 1 represent number of complete responses still present at the end of study on day 47.
Two additional Smo inhibitors, Compound 3 and Compound 4 were evaluated in follow-up studies in the Ptch+/−Hic+/− model upon continous dosing.

[2] = tested on: Ptch+/−p53−/− medulloblastoma allograft; experiment: Ptch+/−p53−/− medulloblastoma allograft model, continuous dosing; type: in vivo, mouse; conditions: 100 mg/kg bid, 25 days, FIG. 1
From the text: as §1
as §2, with “(CR). […]” for “(CR).”

[3] = tested on: Ptch+/− medulloblastoma allograft; experiment: Ptch+/− medulloblastoma allograft model, continuous dosing; type: in vivo, mouse; conditions: 100 mg/kg bid, day 48
From the text: as §1, §2
Treatments started on day 7 post implantation (5 million cells/animal). Compound 1 was administered po at 10 mg/kg qd, 20 mg/kg qd, 40 mg/kg qd, 80 mg/kg qd and 160 mg/kg qd for the length of study. Compound 2 was administered at 100 mg/kg bid for the length of study. Vehicle control of Compound 1 was 0.5% methylcellulose 0.5% Tween 80 in water. The initial group size consisted of 8 animals. The vehicle group was taken down 7 days after treatment (tumors greater than 10% of mouse body weight). Similar resistance was seen to that observed with the Ptc+/−Hic+/− model, with a subset of the complete responders growing back and others showing complete regression (Table 2). Sustained regression listed in Table 2 represent number of complete regressions still present at the end of study on day 48.

[4] = tested on: Ptch+/−Hic+/− medulloblastoma allograft; experiment: combination of Smo inhibitor and PI3K inhibitor in Ptch+/−Hic+/− medulloblastoma allograft model; type: in vivo, mouse
From the text: Mouse medulloblastoma cells (1.0-5.0×10^6), dissociated directly from tumor fragments originally derived from spontaneously arising medulloblastomas in Ptch+/-p53-/-, Ptch+/-Hic+/- or Ptch+/- mice, were inoculated subcutaneously into the right flank of Harlan nu/nu mice. Treatment was initiated approximately 7-10 days post implantation. Animals were randomized into treatment groups with similar mean tumor volumes that ranged from approximately 250-300 mm3. Tumor volumes (mm3) and body weights (g) were recorded two or three times per week from all groups for analysis. Dose was body weight adjusted at time of dosing. Comparisons between treatment groups was performed using a non-parametric Kruskal-Wallis/Wilcoxon Rank Sum Test. Tumors were calipered in two dimensions, and the volumes were calculated using the formula: (length×width2)/2, where length is the longer of the two measurements and width is the shorter one. […] A partial responder (PR) was defined as an animal whose tumor was less than 50% of the initial tumor volume by the end of the study. An animal with no palpable tumor by the end of study is defined as a complete responder (CR). Next, a combination of Compound 1 and Compound A was explored in the Ptch+/-Hic+/- medulloblastoma allograft model. […] Animals treated with vehicle control and with compound A had to be sacrificed around day 20 and 25, respectively, because their tumor volume reached 1500 mm3. […] Similar results were obtained for animals treated with Compound 1 alone for the first 10 days, followed by single agent treatment with Compound A (data not shown). […] Next, a combination of Compound 1 and Compound B was explored in the Ptch+/-Hic+/- medulloblastoma allograft model. […] Animals treated with vehicle control and with compound B reached the endpoint around day 12 to 15, respectively, because their tumor volume reached 700 mm3.

[5] = tested on: sensitive medulloblastoma tumor cells; experiment: ex-vivo medulloblastoma proliferation assay (3H thymidine, 48 h), sensitive tumor cells; type: cell-based; conditions: Mus musculus, Sensitive tumor, Table 3
Protocol: (§3) The effect of statins (e.g., simvastatin, flustatin) on the proliferation of medulloblastoma cells derived from sensitive and resistant Ptch+/− cells was evaluated by using an “ex-vivo medulloblastoma proliferation assay.” Using Ptch+/−p53−/−, Ptch+/−Hic+/− or Ptch+/− medulloblastoma tumors freshly harvested from allografted nude mice, we have developed a short-term 48 h proliferation assay that enables us to assess the in vitro potency of Smo inhibitors. The read-out for proliferation uses incorporation of 3H thymidine. The assay reflects the in vivo sensitivity of tumor cells to Compound 1.
(§4) The effect of PI3K inhibitors (e.g., compounds such as Compound A) on the proliferation of medulloblastoma cells derived from sensitive and resistant medulloblastoma cells was evaluated by using an “ex-vivo medulloblastoma proliferation assay,” as described above.

[6] = tested on: resistant medulloblastoma tumor cells; experiment: ex-vivo medulloblastoma proliferation assay (3H thymidine, 48 h), resistant tumor cells; type: cell-based, mouse
Protocol: as §3, §4

[7] = tested on: Akt and S6 phosphorylation; experiment: Western blot of ex-vivo medulloblastoma assay; type: cell-based, mouse; conditions: sensitive and resistant cells, FIG. 5
[8] = Mus musculus, Resistant tumor, Table 3

Structure (SMILES): COc1cc(OC)cc(C(=O)Nc2ccc(Cl)c(-c3nc4cc(N(C)C)ccc4[nH]3)c2)c1 [Compound 2, N-[4-Chloro-3-(5-dimethylamino-1H-benzoimidazol-2-yl)-phenyl]-3,5-dimethoxy-benzamide, reference compound]
- sustained regressions (complete responses still present at end of study) ([1]; 100 mg/kg bid po, day 47): 0/8
- tumor response on continuous dosing [2]: initially caused regression, followed by tumor regrowth
- sustained regressions (complete regressions still present at end of study) [3]: 0/8

Structure (SMILES): Cc1c(Cc2ccccc2)nnc(N2CCN(c3cnc(C(C)(C)O)cn3)[C@H](C)C2)c1C [Compound 3, 2-[(R)-4-(6-Benzyl-4,5-dimethyl-pyridazin-3-yl)-2-methyl-3,4,5,6-tetrahydro-2H-[1,2]bipyrazinyl-5′-yl]-propan-2-ol]
- number of sustained complete regressions ([1]; 40 mg/kg bid): 3/8
- number of sustained complete regressions ([1]; 40 mg/kg qd): 0/8
- number of sustained complete regressions ([1]; 60 mg/kg qd): 0/8
- number of sustained complete regressions ([1]; 80 mg/kg qd): 0/8
- number of sustained complete regressions ([1]; 100 mg/kg qd): 3/8
- tumor response on continuous dosing ([1]; follow-up studies, continuous dosing): initially induced tumor regression followed by tumor regrowth in the presence of compound

- IC50 [5]: 200 nM
- IC50 [6, 8]: 220 nM
- IC50 ([6]; Mus musculus, ptch+/− Hic+/−, Resistant, Table 4): 300 nM
- IC50 ([6]; ptch+/− Hic+/−, Resistant, Table 4): 170 nM and 150 nM
Structure (SMILES): Nc1cc(C(F)(F)F)c(-c2cc(N3CCOCC3)nc(N3CCOCC3)n2)cn1 [Compound A, 5-(2,6-di-morpholin-4-yl-pyrimidin-4-yl)-4-trifluoromethyl-pyridin-2-ylamine]
- effect on tumor growth ([4]; 60 mg/kg qd, FIG. 6A): only a moderate effect on tumor growth compared to vehicle control
- time to endpoint (tumor volume >1500 mm3) ([4]; 60 mg/kg qd, FIG. 6B): ~25 days
- inhibition of proliferation, sensitive compared with resistant tumors ([6]; sensitive and resistant tumors): inhibited both sensitive and resistant tumors with similar IC50s
- inhibition of Akt and S6 phosphorylation [7]: inhibits Akt and S6 phosphorylation in both sensitive and resistant cells; also recorded: inhibited Akt and S6 phosphorylation both in sensitive and resistant tumors at similar concentrations

Structure (SMILES): Cn1c(=O)n(-c2ccc(C(C)(C)C#N)cc2)c2c3cc(-c4cnc5ccccc5c4)ccc3ncc21 [Compound B, 2-methyl-2-[4-(3-methyl-2-oxo-8-quinolin-3-yl-2,3-dihydro-imidazo[4,5-c]quinolin-1-yl)-phenyl]-propionitrile]
- effect on tumor growth ([4]; 40 mg/kg qd, FIG. 7A): no effect on tumor growth compared to vehicle control
- time to endpoint (tumor volume >700 mm3) ([4]; 40 mg/kg qd, FIG. 7B): ~15 days

- IC50 [5]: 4 nM
- IC50 [6, 8]: 4 nM
Structure (SMILES): CCC(C)(C)C(=O)O[C@H]1C[C@@H](C)C=C2C=C[C@H](C)[C@H](CC[C@@H]3C[C@@H](O)CC(=O)O3)[C@H]21 [Simvastatin, reference compound]
